This data set in a line: recombinant UMI read abundance after kanamycin selection (control-corrected) (log10(CPM+1)); higher = more efficient recombination; extreme values may be limits of the assay; sequences stand for … in AGTGCAGAGAAAATCGGCCAGTTTTCTCTGCCTGCAGTCCGCATGCCGTGGGACCCCTTGGGTTCTAACCTGTTGCCTAGATTTATGCAGCGGACTGCCTTTCTCCCAAAGTGATAAACCGG…AGGTTGGTTTCACT; site = the 11-nt donor. The procedure, abridged:
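Two replicates each of selected and unselected plating were used in this pooled Escherichia coli screen of donor and donor-binding-loop pairs for the IS621 bridge recombinase. Selection was with IPTG (0.07 mM) and kanamycin. Counts of recombinant UMIs, amplified across the donor–target junction, were converted to CPM, averaged, scaled by control-derived factors and reported as log10(CPM+1).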
In the case of “CCCATATCATGGACCGGTTTTCCCGGTAATCCGTATTTGCC (site CCCATATCTGC)”, the “recombinant UMI read abundance (log10)” value is 0.

Turning to “CCCATATCATGGACCGGTTTTCCCGGTAATCCGTATTTGCC (site CCCATATCTGG)”, the “recombinant UMI read abundance (log10)” value came to 0.328.

On to “CCCATATCATGGACCGGTTTTCCCGGTAATCCGTATTTGCC (site CCCATATCTGT)”, for which the “recombinant UMI read abundance (log10)” value was found to be 0.454.

As for “CCCATATCATGGACCGGTTTTCCCGGTAATCCGTATTTGTG (site CCCATATCTAA)”, the “recombinant UMI read abundance (log10)” value was 0.00783.

Regarding “CCCATATCATGGACCGGTTTTCCCGGTAATCCGTATTTGTG (site CCCATATCTCA)”, the “recombinant UMI read abundance (log10)” value was 0.356.

Consider “CCCATATCATGGACCGGTTTTCCCGGTAATCCGTATTTGTG (site CCCATATCTGA)”, for which the “recombinant UMI read abundance (log10)” value was 0.

For the sequence “CCCATATCATGGACCGGTTTTCCCGGTAATCCGTATTTGTG (site CCCATATCTTA)”, the “recombinant UMI read abundance (log10)” value came out at 0.0103.

Consider “CCCATGTCATGGACCGGTTTTCCCGGTAATCCGTATTTGTC (site CCCATATCTGA)”, for which the “recombinant UMI read abundance (log10)” value came out at 0.

On to “CCCATGTCATGGACCGGTTTTCCCGGTAATCCGTATTTGTC (site CCCATCTCTGA)”, for which the “recombinant UMI read abundance (log10)” value is 0.

Regarding “CCCATGTCATGGACCGGTTTTCCCGGTAATCCGTATTTGTC (site CCCATGTCTGA)”, the “recombinant UMI read abundance (log10)” value is 1.64.

Take “CCCATGTCATGGACCGGTTTTCCCGGTAATCCGTATTTGTC (site CCCATTTCTGA)”: the “recombinant UMI read abundance (log10)” value came to 0.

“CCCATTTCATGGACCGGTTTTCCCGGTAATCCGTATTTGTC (site CCCATATCTGA)”: the “recombinant UMI read abundance (log10)” value came out at 0.

With “CCCATTTCATGGACCGGTTTTCCCGGTAATCCGTATTTGTC (site CCCATCTCTGA)”, the “recombinant UMI read abundance (log10)” value is 0.

Take “CCCATTTCATGGACCGGTTTTCCCGGTAATCCGTATTTGTC (site CCCATGTCTGA)”: the “recombinant UMI read abundance (log10)” value was 0.

For the sequence “CCCATTTCATGGACCGGTTTTCCCGGTAATCCGTATTTGTC (site CCCATTTCTGA)”, the “recombinant UMI read abundance (log10)” value is 0.

Regarding “CCCCAATCATGGACCGGTTTTCCCGGTAATCCGTATTTGTG (site CCCCAATCTCA)”, the “recombinant UMI read abundance (log10)” value came to 0.678.

Take “CCCCACACATGGACCGGTTTTCCCGGTAATCCGTATTTGAA (site CCCCACACTTA)”: the “recombinant UMI read abundance (log10)” value worked out at 0.0109.

For the sequence “CCCCACACATGGACCGGTTTTCCCGGTAATCCGTATTTGAA (site CCCCACACTTC)”, the “recombinant UMI read abundance (log10)” value worked out at 0.33.

With “CCCCACACATGGACCGGTTTTCCCGGTAATCCGTATTTGAA (site CCCCACACTTG)”, the “recombinant UMI read abundance (log10)” value amounted to 0.

For “CCCCACACATGGACCGGTTTTCCCGGTAATCCGTATTTGAA (site CCCCACACTTT)”, the “recombinant UMI read abundance (log10)” value was 0.557.

“CCCCACACATGGACCGGTTTTCCCGGTAATCCGTATTTGTA (site ACCCACACTTA)”: the “recombinant UMI read abundance (log10)” value amounted to 0.0144.

For “CCCCACACATGGACCGGTTTTCCCGGTAATCCGTATTTGTA (site CACCACACTTA)”, the “recombinant UMI read abundance (log10)” value was determined as 0.0132.

Consider “CCCCACACATGGACCGGTTTTCCCGGTAATCCGTATTTGTA (site CCACACACTTA)”, for which the “recombinant UMI read abundance (log10)” value came out at 0.0146.

Turning to “CCCCACACATGGACCGGTTTTCCCGGTAATCCGTATTTGTA (site CCCAACACTTA)”, the “recombinant UMI read abundance (log10)” value is 0.

As for “CCCCACACATGGACCGGTTTTCCCGGTAATCCGTATTTGTA (site CCCCAAACTTA)”, the “recombinant UMI read abundance (log10)” value is 0.

In the case of “CCCCACACATGGACCGGTTTTCCCGGTAATCCGTATTTGTA (site CCCCACACTAA)”, the “recombinant UMI read abundance (log10)” value came to 0.0177.

On to “CCCCACACATGGACCGGTTTTCCCGGTAATCCGTATTTGTA (site CCCCACACTCA)”, for which the “recombinant UMI read abundance (log10)” value was 0.0202.

For the sequence “CCCCACACATGGACCGGTTTTCCCGGTAATCCGTATTTGTA (site CCCCACACTGA)”, the “recombinant UMI read abundance (log10)” value is 0.

In the case of “CCCCACACATGGACCGGTTTTCCCGGTAATCCGTATTTGTA (site CCCCACACTTA)”, the “recombinant UMI read abundance (log10)” value is 1.14.

For the sequence “CCCCACACATGGACCGGTTTTCCCGGTAATCCGTATTTGTA (site CCCCACACTTC)”, the “recombinant UMI read abundance (log10)” value turned out to be 0.0125.

Take “CCCCACACATGGACCGGTTTTCCCGGTAATCCGTATTTGTA (site CCCCACACTTG)”: the “recombinant UMI read abundance (log10)” value worked out at 0.586.

Take “CCCCACACATGGACCGGTTTTCCCGGTAATCCGTATTTGTA (site CCCCACACTTT)”: the “recombinant UMI read abundance (log10)” value stood at 0.00983.

For the sequence “CCCCACACATGGACCGGTTTTCCCGGTAATCCGTATTTGTA (site CCCCACCCTTA)”, the “recombinant UMI read abundance (log10)” value came to 0.00838.

On to “CCCCACACATGGACCGGTTTTCCCGGTAATCCGTATTTGTA (site CCCCACGCTTA)”, for which the “recombinant UMI read abundance (log10)” value was found to be 0.0198.

Regarding “CCCCACACATGGACCGGTTTTCCCGGTAATCCGTATTTGTA (site CCCCACTCTTA)”, the “recombinant UMI read abundance (log10)” value came to 0.273.

As to “CCCCACACATGGACCGGTTTTCCCGGTAATCCGTATTTGTA (site CCCCAGACTTA)”, the “recombinant UMI read abundance (log10)” value is 0.0244.

With “CCCCACACATGGACCGGTTTTCCCGGTAATCCGTATTTGTA (site CCCCATACTTA)”, the “recombinant UMI read abundance (log10)” value is 0.0127.

Turning to “CCCCACACATGGACCGGTTTTCCCGGTAATCCGTATTTGTA (site CCCCCCACTTA)”, the “recombinant UMI read abundance (log10)” value was determined as 0.0246.

Regarding “CCCCACACATGGACCGGTTTTCCCGGTAATCCGTATTTGTA (site CCCCGCACTTA)”, the “recombinant UMI read abundance (log10)” value worked out at 0.0118.

For “CCCCACACATGGACCGGTTTTCCCGGTAATCCGTATTTGTA (site CCCCTCACTTA)”, the “recombinant UMI read abundance (log10)” value turned out to be 0.0137.

Turning to “CCCCACACATGGACCGGTTTTCCCGGTAATCCGTATTTGTA (site CCCGACACTTA)”, the “recombinant UMI read abundance (log10)” value was found to be 0.0189.

Take “CCCCACACATGGACCGGTTTTCCCGGTAATCCGTATTTGTA (site CCCTACACTTA)”: the “recombinant UMI read abundance (log10)” value amounted to 0.0176.

Turning to “CCCCACACATGGACCGGTTTTCCCGGTAATCCGTATTTGTA (site CCGCACACTTA)”, the “recombinant UMI read abundance (log10)” value is 0.021.

Take “CCCCACACATGGACCGGTTTTCCCGGTAATCCGTATTTGTA (site CCTCACACTTA)”: the “recombinant UMI read abundance (log10)” value stood at 0.0102.

On to “CCCCACACATGGACCGGTTTTCCCGGTAATCCGTATTTGTA (site CGCCACACTTA)”, for which the “recombinant UMI read abundance (log10)” value came out at 0.016.

As to “CCCCACACATGGACCGGTTTTCCCGGTAATCCGTATTTGTA (site CTCCACACTTA)”, the “recombinant UMI read abundance (log10)” value stood at 0.113.

Take “CCCCACACATGGACCGGTTTTCCCGGTAATCCGTATTTGTA (site GCCCACACTTA)”: the “recombinant UMI read abundance (log10)” value came to 0.00479.

With “CCCCACACATGGACCGGTTTTCCCGGTAATCCGTATTTGTA (site TCCCACACTTA)”, the “recombinant UMI read abundance (log10)” value was 0.0139.

Turning to “CCCCAGACATGGACCGGTTTTCCCGGTAATCCGTATTTGTA (site CCCCAAACTTA)”, the “recombinant UMI read abundance (log10)” value amounted to 0.459.

For the sequence “CCCCAGACATGGACCGGTTTTCCCGGTAATCCGTATTTGTA (site CCCCACACTTA)”, the “recombinant UMI read abundance (log10)” value was determined as 0.0077.

With “CCCCAGACATGGACCGGTTTTCCCGGTAATCCGTATTTGTA (site CCCCAGACTTA)”, the “recombinant UMI read abundance (log10)” value came to 0.691.

Consider “CCCCAGACATGGACCGGTTTTCCCGGTAATCCGTATTTGTA (site CCCCATACTTA)”, for which the “recombinant UMI read abundance (log10)” value worked out at 0.00999.

For “CCCCCCACATGGACCGGTTTTCCCGGTAATCCGTATTTGTA (site CCCCACACTTA)”, the “recombinant UMI read abundance (log10)” value came to 0.00745.

On to “CCCCCCACATGGACCGGTTTTCCCGGTAATCCGTATTTGTA (site CCCCCCACTTA)”, for which the “recombinant UMI read abundance (log10)” value stood at 0.82.

For the sequence “CCCCCCACATGGACCGGTTTTCCCGGTAATCCGTATTTGTA (site CCCCGCACTTA)”, the “recombinant UMI read abundance (log10)” value stood at 0.0126.

Consider “CCCCCCACATGGACCGGTTTTCCCGGTAATCCGTATTTGTA (site CCCCTCACTTA)”, for which the “recombinant UMI read abundance (log10)” value worked out at 0.00445.

In the case of “CCCCGCACATGGACCGGTTTTCCCGGTAATCCGTATTTGTA (site CCCCACACTTA)”, the “recombinant UMI read abundance (log10)” value stood at 0.48.

Turning to “CCCCGCACATGGACCGGTTTTCCCGGTAATCCGTATTTGTA (site CCCCCCACTTA)”, the “recombinant UMI read abundance (log10)” value is 0.00659.

Regarding “CCCCGCACATGGACCGGTTTTCCCGGTAATCCGTATTTGTA (site CCCCGCACTTA)”, the “recombinant UMI read abundance (log10)” value amounted to 1.16.

In the case of “CCCCGCACATGGACCGGTTTTCCCGGTAATCCGTATTTGTA (site CCCCTCACTTA)”, the “recombinant UMI read abundance (log10)” value turned out to be 0.00635.

Regarding “CCCCGCCCATGGACCGGTTTTCCCGGTAATCCGTATTTGTC (site CCCCGCCCTGA)”, the “recombinant UMI read abundance (log10)” value was found to be 0.

For “CCCCGTACATGGACCGGTTTTCCCGGTAATCCGTATTTGAT (site CCCCGTACTAT)”, the “recombinant UMI read abundance (log10)” value is 1.45.

In the case of “CCCCGTACATGGACCGGTTTTCCCGGTAATCCGTATTTGCT (site CACCGTACTAG)”, the “recombinant UMI read abundance (log10)” value was 0.00449.

For “CCCCGTACATGGACCGGTTTTCCCGGTAATCCGTATTTGCT (site CCCCGTACTAG)”, the “recombinant UMI read abundance (log10)” value was 1.56.

As to “CCCCGTACATGGACCGGTTTTCCCGGTAATCCGTATTTGCT (site CGCCGTACTAG)”, the “recombinant UMI read abundance (log10)” value was determined as 0.

For the sequence “CCCCGTACATGGACCGGTTTTCCCGGTAATCCGTATTTGCT (site CTCCGTACTAG)”, the “recombinant UMI read abundance (log10)” value is 0.542.

Turning to “CCCCTCACATGGACCGGTTTTCCCGGTAATCCGTATTTGTA (site CCCCACACTTA)”, the “recombinant UMI read abundance (log10)” value was 0.0243.

Consider “CCCCTCACATGGACCGGTTTTCCCGGTAATCCGTATTTGTA (site CCCCCCACTTA)”, for which the “recombinant UMI read abundance (log10)” value was 0.274.

(Values after the supplement of paper PMC11208160.)
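Further: IS621 bridge recombinase in Escherichia coli cells against a fixed T5 target plasmid.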
